Test results taken from paper PMC10458698, “Characterization of the interferences of systemic azole antifungal drugs with adrenal steroid biosynthesis using H295R cells and enzyme activity assays” (Current Research in Toxicology, 2023).

Tests used:
H295R cells = test: Steroidogenesis assay in forskolin-stimulated H295R cells, UHPLC-MS/MS; type: cell-based, human; details: 48 h
Procedure: Briefly, 200,000 cells/mL between passages 5 and 10 were seeded in a 24-well plate. After 24 h, the medium was replaced by fresh medium containing reference or test compounds. […] As a time zero control, complete medium was incubated without cells. After 48 h of incubation, the cell culture supernatant was collected and stored at −20 °C until steroid quantification was performed by ultra-high liquid chromatography tandem mass spectrometry (UHPLC-MS/MS). All experiments were performed three times independently in technical duplicates.
Using water, the sample volume was adapted to 1 mL. Samples were extracted using Oasis HLB 3 cc SPE cartridge (30 mg, 30 μm particle size, Waters, Massachusetts, USA). Columns were preconditioned with 1 mL ethyl acetate and water prior to application of samples. After sample loading, columns were washed three times with 1 mL methanol (10% v/v) and water before samples were eluted applying 0.75 mL ethyl acetate twice. Eluates were evaporated to dryness and reconstituted in 50 µL methanol. Samples were applied to a reverse phase column (Waters Acquity UPLC BEH C18, 1.7 μm, 2.1 mm × 150 mm). […] Applied mobile phases consisted of water, acetonitrile and formic acid (95/5/0.1; v/v/v and 5/95/0.1; v/v/v). For data analysis, Hunter software version B.09.00 (Agilent Technologies) was used. Lower limit of detection (LOD), lower limit of quantification (LLOQ), and upper limit of quantification (ULOQ) are shown in Table 1.

CYP11A1 = target: T1, CYP11A1 (Homo sapiens, UniProt P05108); test: CYP11A1 assay based on mitochondrial fraction of V79-4 cells; type: biochemical; details: 10 µM, 20S-hydroxycholesterol 2 µM, 4 h, qualitative, assay of low sensitivity
T1 construct: host or cells: V79-4 cells (Chinese hamster), transient transfection, mitochondrial fraction
T1 sequence (P05108 40-521): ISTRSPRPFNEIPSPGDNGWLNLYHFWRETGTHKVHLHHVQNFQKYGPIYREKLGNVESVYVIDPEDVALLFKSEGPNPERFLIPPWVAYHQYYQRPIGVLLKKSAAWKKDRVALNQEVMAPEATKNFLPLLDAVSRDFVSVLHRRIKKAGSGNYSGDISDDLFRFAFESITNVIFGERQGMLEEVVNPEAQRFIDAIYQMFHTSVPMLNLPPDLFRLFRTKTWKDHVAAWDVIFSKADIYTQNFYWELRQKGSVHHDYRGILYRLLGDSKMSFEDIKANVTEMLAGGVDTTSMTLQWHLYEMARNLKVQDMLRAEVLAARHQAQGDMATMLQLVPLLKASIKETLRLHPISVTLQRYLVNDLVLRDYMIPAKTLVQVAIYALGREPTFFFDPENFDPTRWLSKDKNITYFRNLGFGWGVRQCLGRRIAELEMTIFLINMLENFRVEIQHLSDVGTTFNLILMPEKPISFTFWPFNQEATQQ
Procedure: Mitochondria were prepared as described previously with modifications ([Frezza et al., 2007]). Briefly, V79-4 cells (3,000,000) were seeded 4 h prior to transfection with 4 µg of expression plasmid for CYP11A1 and adrenodoxin (GeneScript Piscataway, USA, clone IDs OHu18602D and OHu55929D) using polyethylemine (PEI) in a PEI/DNA ratio of 3:1 (w/w). At 4 h post-transfection, medium was changed and cells were incubated overnight. Cells were collected in ice cold phosphate buffered saline (PBS) and centrifuged at 600 × g for 10 min at 4 °C. The pellet was resuspended in ice cold isolation buffer (10 mM Tris/MOPS, pH 7.4, 1 mM EGTA/Tris, pH 7.4, 200 mM sucrose in water) and transferred to a glass potter, followed by 35 S using a 2 cm^3 glass Teflon pestle. The homogenate was centrifuged for 10 min at 600 × g and 4 °C. The supernatant was collected and centrifuged for 10 min at 7000 × g at 4 °C. The pellet was washed and resuspended in 200 μL ice cold isolation buffer. After centrifugation, the pellet containing the mitochondrial fraction was resuspended in 30 μL reaction buffer (25 mM HEPES pH 7.4, 0.1 mM DTT, 0.1 mM EDTA, 4 mM MgCl2) and the protein content was determined by the BCA assay according to the manufacturer (Pierce BCA protein assay kit, Thermo Scientific, Rockford, USA). Bovine serum albumin provided with the kit was used as reference protein and absorbance was measured using a BioTek Cytation5 Imaging Reader (Agilent BioTek).
For the CYP11A1 activity assay, 500 µg/mL of freshly prepared mitochondrial fraction were pre-incubated on ice with reaction buffer, 1 mM NADPH and either vehicle (0.1% DMSO), 10 µM of the positive control ketoconazole ([Mast et al., 2013]) or the triazole antifungals for 10 min. The reaction was started by adding the substrate 20S-hydroxycholesterol at a final concentration of 2 µM in a reaction volume of 50 µL. After 4 h of incubation at 37 °C, the reaction was stopped by adding 50 µL methanol and shock-freezing in liquid nitrogen. Samples were stored at −80 °C until sample preparation for pregnenolone detection using an ELISA kit (Alpco, Salem, USA). Sample preparation included evaporation of samples to dryness, reconstitution in 6 µL methanol and 1:25 (v:v) dilution in water. The ELISA was performed according to the manufacturer and absorbance was measured using a BioTek Citation5 imaging reader.

11β-HSD2 = system: 11β-HSD2; parameters: method as in Beck et al., 2017, Beck et al., 2020a; details: ref Beck et al., 2017, Beck et al., 2020a; cited from earlier work
[1] = 30 nM, 10 μM forskolin, relative to forskolin control

SMILES | lower level of the CYP11B2 product aldosterone (H295R cells; [1]) [%] | lower levels of the CYP11B1 products cortisol and corticosterone (H295R cells; [1]) | inhibition of cortisol, corticosterone and aldosterone production (H295R cells; 300 nM and higher concentrations) | effect on the steroid profile (H295R cells; forskolin-stimulated, in words) | product/substrate ratio 17α-hydroxyprogesterone/progesterone (apparent CYP17A1 17α-hydroxylase activity) (H295R cells; forskolin-stimulated, in words) | product/substrate ratios corticosterone/11-DOC and cortisol/cortexolone (apparent CYP11B1 activity) (H295R cells; forskolin-stimulated, in words) | inhibition of CYP11A1 activity (CYP11A1) | IC50 (11β-HSD2) [µM] | concentrations that block overall steroidogenesis (H295R cells; forskolin-stimulated) [µM] | effect on the steroid profile (H295R cells; forskolin-stimulated, in words, listed as Itraconazole)
CC[C@@H]([C@H](C)O)n1ncn(-c2ccc(N3CCN(c4ccc(OC[C@@H]5CO[C@@](Cn6cncn6)(c6ccc(F)cc6F)C5)cc4)CC3)cc2)c1=O [posaconazole, Posaconazole] | ~50 | about 40% | complete inhibition | did not affect progesterone and 11-DOC levels | indicated 17α-hydroxylase inhibition | decreased with increasing concentrations | very weak inhibitory activity | 0.46 |  | 
C[C@@H](c1nc(-c2ccc(C#N)cc2)cs1)[C@](O)(Cn1cncn1)c1cc(F)ccc1F [isavuconazole] |  |  |  | concentration-dependent decrease in all measured steroids |  | did not indicate an inhibition of CYP11B1 and CYP11B2 | comparable to ketoconazole | ~10 | ≥ 1 | 
CCC(C)n1ncn(-c2ccc(N3CCN(c4ccc(OCC5COC(Cn6cncn6)(c6ccc(Cl)cc6Cl)O5)cc4)CC3)cc2)c1=O (stereo not shown) [itraconazole] |  |  |  | lowered the levels of all steroids in a concentration-dependent manner |  | less potently | very weak inhibitory activity | 0.14 | ≥ 1 | inhibited the production of corticosterone and aldosterone and, to a lesser extent, of cortisol in a concentration-dependent manner
